Measured values: patent US11396643B2, “Compositions comprising bacterial strains and use thereof in controlling pathogenic microorganisms” (Better Air International Limited, priority 2018, dated 2022)

Assays:
Test in all cases: Agar well diffusion antifungal assay
Format in all cases: cell-based
Settings in all cases: PDA plates, 25° C. 72 h
[1] = test system: Alternaria alternata (Fries) Keissler (ATCC MYA-4642)
Description: (§1) Brain Heart Infusion (BHI) Agar was used for the antagonism against pathogenic microorganisms while the Potato Dextrose Agar (PDA) was used for evaluation against molds. […] Molds were prepared using PDA at 25° C. with 85% HR for 7 days. […] The same amount of mold spore suspension was inoculated on PDA.

[2] = test system: Cladosporium sphaerospermum Penzig (ATCC MYA-4645)
Description: as §1

[3] = test system: Penicillium chrysogenum Thom (ATCC MYA-4644)
Description: as §1

## OO [Hydrogen peroxide 10%, Hydrogen peroxide]
[1]
  Inhibition zone, Alternaria alternata (Fries) Keissler (ATCC MYA-4642): 8 mm
[2]
  Inhibition zone, Cladosporium sphaerospermum Penzig (ATCC MYA-4645): 12 mm
[3]
  Inhibition zone, Penicillium chrysogenum Thom (ATCC MYA-4644): 10 mm
